Experimental data reported in PubChem BioAssay AID850 (SRMLSC, 2007).
The source made the active and inactive calls. How the calls were made is not given here.

Tests used:
[1] = concentration-response yeast growth inhibition under permissive conditions, counter-assay for yeast lifespan-shortening chemical project (AID 850); conditions: Saccharomyces cerevisiae growth inhibition, permissive control, measured here: maximum growth inhibition, stronger effect = higher value;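 further: growth read as optical density after one day of incubation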
[2] = test system: Saccharomyces cerevisiae growth inhibition, permissive control; assay: as above

c1ccc(-c2nc3c(ccc4ccccc43)[nH]2)nc1
inhibition ([1]; at 50 µM): 80.8%
IC50 [2]: 36.8 µM

O=C1NC(c2ccccn2)Nc2sc3c(c21)CCC3 (centres undefined)
inhibition ([1]; at 0.195 µM): 25.5%
IC50 [2]: > 100 µM (inactive)

COC(=O)Cc1cc(=O)n(-c2nc3ccccc3[nH]2)[nH]1
inhibition ([1]; at 50 µM): 64.1%
IC50 [2]: 45.1 µM

C=CCn1c2ccccc2c2nnc(SCN3C(=O)c4ccccc4C3=O)nc21
inhibition ([1]; at 6.25 µM): 12.7%
IC50 [2]: > 100 µM (inactive)

Oc1c(Br)cc(Br)cc1/C=N/c1nc2c(s1)CCCC2
inhibition ([1]; at 50 µM): 98.5%
IC50 [2]: 5.27 µM

CCOc1ccc(/C=C/C(=O)c2cc(Br)ccc(=O)c2O)cc1
inhibition ([1]; at 50 µM): 89.6%
IC50 [2]: 16.7 µM

CCc1oc2ccccc2c1C(=O)c1cc(Br)c(O)c(Br)c1
inhibition ([1]; at 50 µM): 87.7%
IC50 [2]: 36.1 µM

Cc1ccc(NC(=O)CSC2=C(C#N)C(c3ccc4c(c3)OCO4)C3=C(CCCC3=O)N2)c(C)c1 (centres undefined)
inhibition ([1]; at 0.195 µM): 8.26%
IC50 [2]: > 100 µM (inactive)

CCC1CCCCN1C(=O)CSc1nnc(-c2ccc(OC)cc2)o1 (centres undefined)
inhibition ([1]; at 12.5 µM): 24.1%
IC50 [2]: > 100 µM (inactive)

COc1cc(/C=N/N(C)c2ccccc2)cc(Cl)c1O
inhibition ([1]; at 1.563 µM): 14.6%
IC50 [2]: > 100 µM (inactive)

COCCN1CSC(=S)N(Cc2ccco2)C1
inhibition ([1]; at 50 µM): 64.7%
IC50 [2]: 34.5 µM

Oc1c(Br)cc(Br)cc1C=Nc1ccc2c(c1)OCO2
inhibition ([1]; at 50 µM): 86%
IC50 [2]: 36.5 µM

CN1CCN(CC(=O)N2CCn3c4c(c5cc(C6CCCCC6)ccc53)CCCC42)CC1 (centres undefined)
inhibition ([1]; at 1.563 µM): 6.73%
IC50 [2]: > 100 µM (inactive)

c1ccc(-c2ccc(OCCCn3cncn3)cc2)cc1
inhibition ([1]; at 25 µM): 57.7%
IC50 [2]: 34.1 µM

CC(C)(C)c1ccc(C(=O)NC(=S)NNC(=O)c2cccs2)cc1
inhibition ([1]; at 50 µM): 53.8%
IC50 [2]: 41.7 µM

O=C(Nc1nc(-c2ccccn2)cs1)C1COc2ccccc2O1 (centres undefined)
inhibition ([1]; at 50 µM): 95.2%
IC50 [2]: 11.6 µM

COc1cc(-c2nc3ccc4ccccc4c3c3c2CCC3)ccc1O
inhibition ([1]; at 3.125 µM): 11.9%
IC50 [2]: > 100 µM (inactive)

Cc1ccc(-c2nc(N)sc2-c2ccccc2)cc1C
inhibition ([1]; at 6.25 µM): 16%
IC50 [2]: > 100 µM (inactive)

O=C(O)c1cc2ccc3ccccc3c2oc1=O
inhibition ([1]; at 50 µM): 64.3%
IC50 [2]: 32 µM

O=C(CC(O)(C(F)(F)F)C(F)(F)F)Nc1ccc(Cl)c(Cl)c1
inhibition ([1]; at 50 µM): 92.8%
IC50 [2]: 19.2 µM

CCn1c2ccc(C)cc2c2nc3cc(C(=O)O)ccc3nc21
inhibition ([1]; at 50 µM): 75%
IC50 [2]: 23.9 µM

Cc1nc2ccccc2c2c1C(=O)N(C)C2=O
inhibition ([1]; at 12.5 µM): 20.3%
IC50 [2]: > 100 µM (inactive)

Oc1ccc(CN2CCCCC2)c2cccnc12
inhibition ([1]; at 50 µM): 37.4%
IC50 [2]: 51.8 µM

O=C(COc1ccccc1)N1CCN=C1SCc1cccnc1
inhibition ([1]; at 0.781 µM): 11.2%
IC50 [2]: > 100 µM (inactive)

Cc1cc(=O)[nH]c(-n2nc(C)cc2C)n1
inhibition ([1]; at 50 µM): 99.6%
IC50 [2]: 15.4 µM

C=CCc1c(C)c(C#N)c2nc3ccccc3n2c1NCCN(C)C
inhibition ([1]; at 50 µM): 98.6%
IC50 [2]: 12.5 µM

CC(C)(CNC(=S)NCCc1ccccc1)CNC(=S)NCCc1ccccc1
inhibition ([1]; at 0.391 µM): 23.5%
IC50 [2]: > 100 µM (inactive)

O=C(Nc1cc(C(F)(F)F)ccc1Cl)C(Sc1cccc[n+]1[O-])c1ccccc1 (centres undefined)
inhibition ([1]; at 50 µM): 99.8%
IC50 [2]: 6.31 µM

CCc1ccc(/C=C/C(=O)c2cc(Br)ccc(=O)c2O)cc1
inhibition ([1]; at 50 µM): 83.6%
IC50 [2]: 13.3 µM

COc1ccccc1OCCN1CSC(=S)N(C)C1
inhibition ([1]; at 50 µM): 82.4%
IC50 [2]: 17.2 µM

Cc1conc1NC(c1cccs1)c1ccc2cccnc2c1O (centres undefined)
inhibition ([1]; at 50 µM): 69.2%
IC50 [2]: 44.9 µM

C=C(C)COc1ccc(-c2[nH]ncc2-c2ccc(Br)cc2)c(O)c1
inhibition ([1]; at 25 µM): 15.9%
IC50 [2]: > 100 µM (inactive)

Nc1c(Nc2ccccc2)c2ccccc2oc1=O
inhibition ([1]; at 50 µM): 47.2%
IC50 [2]: 47.1 µM

CC1=C(C)CC2C(=O)N(c3cccc4ccccc34)C(=O)C2C1 (centres undefined)
inhibition ([1]; at 50 µM): 8.57%
IC50 [2]: > 100 µM (inactive)

CCn1c(=O)c(C(=O)Nc2nc3ccccc3[nH]2)c(O)c2ccccc21
inhibition ([1]; at 0.781 µM): 24.2%
IC50 [2]: > 100 µM (inactive)

CC/C(C)=N/Nc1cccc([N+](=O)[O-])c1
inhibition ([1]; at 50 µM): 98.4%
IC50 [2]: 4.11 µM

CC(=O)NC(CCS(C)(=O)=O)C(=O)Nc1ccc2c(c1)OCO2 (centres undefined)
inhibition ([1]; at 1.563 µM): -0.58%
IC50 [2]: > 100 µM (inactive)

CNC(=S)N/N=C(\C)c1ccc(N2CCOCC2)cc1
inhibition ([1]; at 0.195 µM): 9.86%
IC50 [2]: > 100 µM (inactive)

C/C(=N\Nc1ccc(Cl)cc1)c1ccccn1
inhibition ([1]; at 50 µM): 97.1%
IC50 [2]: 10.1 µM

Clc1cccc(CN2COc3c(cc(Cl)c4cccnc34)C2)c1
inhibition ([1]; at 50 µM): 101%
IC50 [2]: 6.88 µM

COc1cccc(-n2nnnc2S(C)(=O)=O)c1
inhibition ([1]; at 50 µM): 83.2%
IC50 [2]: 23.9 µM

NNC(=O)c1ccc(COc2ccc3c(c2)CCC3)o1
inhibition ([1]; at 50 µM): 95.3%
IC50 [2]: 15.5 µM
